This note sets out measurements from US12280063B2, “Anti-retroviral therapies and reverse transcriptase inhibitors for treatment of Alzheimer's disease” (Sanford Burnham Prebys Medical Discovery Institute, priority 2018, dated 2025).

pIC50: −log10 of the molar value.

Test [1] concerns APP gencDNAs in CHO cells. The test is described as follows: Induction of APP gencDNAs in APP 751-transfected CHO cells treated with hydrogen peroxide, genomic DNA PCR. It is filed as cell-based. The settings on record: AZT 100 μM and ABC 10 μM given together, APP 751 transfection, hydrogen peroxide 0, 5 or 50 μM, FIG. 20B. Here is the method:
The method is graphically represented in FIG. 20A. CHO cells were serum-deprived for 2 days, followed by addition of reverse transcriptase (RT) inhibitors azidothymidine (AZT, 100 μM) and abacavir (ABC, 10 μM) (Tocris, Minneapolis, Minn.) until the end of the experiment. Medium was changed daily with fresh RT inhibitors. Cells were transfected with APP 751 by GenJet (SignaGen Laboratories, Gaithersburg, Md.) on day 3, then on day 4 cells were treated with 0 μM, 5 μM, or 50 μM of hydrogen peroxide (Fisher Scientific) for 2 hrs. After 1 day, cells were collected and genomic DNA was extracted for PCR analysis.

Test [2] relates to reverse transcriptase activity in CHO cell lysate. The test can be described thus: In vitro reverse transcriptase activity assay in CHO cell lysate. It is filed as biochemical. Conditions: four independent experiments, FIG. 20E, read-out: IC50, decrease of reverse transcriptase activity. Here is the method:
In one example, lysates were prepared in reverse transcriptase disruption buffer and contained Complete™, EDTA-free Protease Inhibitor Cocktail (Sigma-Aldrich, St. Louis, Mo.) and PhosSTOP™ phosphatase inhibitors (Sigma-Aldrich, St. Louis, Mo.). One microgram of extract was used in the reverse transcription step of the assay. Reverse transcription was carried out at 37° C. for 45 min, followed by 15 min at 70° C. The RT product of this first step was assayed in triplicate by quantitative PCR. Levels of reverse transcription activity were determined by the Delta Cq method, compared to the activity in negative controls (water and no nucleotides) that were given Cq scores of 40. 1×10^5 picounits of SuperScript™ II Reverse Transcriptase (ThermoFisher Scientific) were used as a positive control for the assay. Lysates for heat inactivation experiments were incubated for 15 min at 70° C. prior to the reverse transcription step. For inhibitor experiments, lysates were incubated with inhibitor in the presence of all the components of the reaction except for dNTPs. After 10 min at room temperature, dNTPs were added and the reaction was incubated at 37° C. as above. AZT-TP was purchased from TriLink Biotechnologies (San Diego, Calif.).
In another example, the in vitro reverse transcriptase activity assay was conducted with reagents and protocol as shown in Tables 8-11.

Regarding `Nc1nc(NC2CC2)c2ncn([C@H]3C=C[C@@H](CO)C3)c2n1` [abacavir], the “production of APP gencDNAs under nucleoside reverse transcriptase inhibitors” value in test [1] is “also required to produce gencDNAs”.

In general, pIC50 refers to −log10 of the IC50, conventionally taken in molar units. As to azidothymidine triphosphate [AZT-TP], in test [2], the pIC50 is 4.73.
